According to ChEMBL document CHEMBL5727333, “3-amino-1,5,6,7-tetrahydro-4H-indol-4-ones” (2019):

molecular target: Mitotic checkpoint serine/threonine-protein kinase BUB1 (Homo sapiens, UniProt O43683); assay: Kinase Assay: In a typical assay 11 different concentrations of each compound (0.1 nM, 0.33 nM, 1.1 nM, 3.8 nM, 13 nM, 44 nM, 0.15 μM, 0.51 μM, 1.7 μM, 5.9 μM and 20 μM) were tested in duplicate within the same microtiter plate. To this end, 100-fold concentrated compound solutions (in DMSO) were previously prepared by serial dilution (1:3.4) of 2 mM stocks in a clear low volume 384-well source microtiter plate (Greiner Bio-One, Frickenhausen, Germany), from which 50 nl of compounds were transferred into a black low volume test microtiter plate from the same supplier. […] The resulting mixture (5 μL final volume) was incubated at 22° C. during 60 min., and the reaction was stopped by the addition of 5 μL of an aqueous EDTA-solution (50 mM EDTA, in 100 mM HEPES pH 7.5 and 0.2% (w/v) bovine serum albumin) which also contained the TR-FRET detection reagents (0.2 μM streptavidin-XL665 [Cisbio Bioassays, Codolet, France] and 1 nM anti-phosho-Serine antibody [Merck Millipore, cat. #35-002] and 0.4 nM LANCE EU-W1024 labeled anti-mouse IgG antibody [Perkin-Elmer, product no. AD0077, alternatively a Terbium-cryptate-labeled anti-mouse IgG antibody from Cisbio Bioassays can be used]). The stopped reaction mixture was further incubated 1 h at 22° C. in order to allow the formation of complexes between peptides and detection reagents.
Sequence (O43683 whole entry): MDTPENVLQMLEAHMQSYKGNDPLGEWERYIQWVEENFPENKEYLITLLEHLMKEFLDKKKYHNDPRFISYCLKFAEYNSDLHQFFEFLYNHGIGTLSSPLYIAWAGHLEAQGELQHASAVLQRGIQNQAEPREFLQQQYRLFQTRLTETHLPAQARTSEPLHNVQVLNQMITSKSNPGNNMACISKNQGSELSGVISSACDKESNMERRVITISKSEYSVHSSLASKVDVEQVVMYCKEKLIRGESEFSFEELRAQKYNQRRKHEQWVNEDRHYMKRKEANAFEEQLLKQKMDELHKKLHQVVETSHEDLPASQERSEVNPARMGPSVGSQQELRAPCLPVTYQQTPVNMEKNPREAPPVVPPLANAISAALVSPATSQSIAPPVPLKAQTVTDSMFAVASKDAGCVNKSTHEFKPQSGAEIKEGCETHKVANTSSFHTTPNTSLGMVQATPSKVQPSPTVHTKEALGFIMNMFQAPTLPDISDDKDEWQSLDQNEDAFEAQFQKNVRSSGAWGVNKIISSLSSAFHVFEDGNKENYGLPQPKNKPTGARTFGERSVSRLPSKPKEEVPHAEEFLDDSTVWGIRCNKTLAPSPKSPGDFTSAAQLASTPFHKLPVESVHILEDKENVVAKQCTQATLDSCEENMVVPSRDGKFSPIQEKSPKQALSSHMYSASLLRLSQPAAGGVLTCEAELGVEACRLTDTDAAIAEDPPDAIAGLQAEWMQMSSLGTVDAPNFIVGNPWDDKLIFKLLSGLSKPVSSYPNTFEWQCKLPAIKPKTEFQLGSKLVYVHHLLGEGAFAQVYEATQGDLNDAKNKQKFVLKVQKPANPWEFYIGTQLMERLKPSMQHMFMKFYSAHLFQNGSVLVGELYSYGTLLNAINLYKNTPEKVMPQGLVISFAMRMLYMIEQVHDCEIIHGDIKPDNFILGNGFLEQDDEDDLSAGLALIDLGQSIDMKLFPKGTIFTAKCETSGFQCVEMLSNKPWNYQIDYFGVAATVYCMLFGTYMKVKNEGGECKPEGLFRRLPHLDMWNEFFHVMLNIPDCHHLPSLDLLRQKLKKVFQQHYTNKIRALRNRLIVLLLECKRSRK

Structure (SMILES)	IC50 [nM]
CC(C)Oc1cccc(Nc2c(-c3ccncc3)[nH]c3c2C(=O)CC(C)(C)C3)c1	1170
CC1(C)CC(=O)c2c([nH]c(-c3ccnc(NS(C)(=O)=O)c3)c2Nc2ccccc2)C1	733
CC1(C)CC(=O)c2c([nH]c(-c3ccnc(Nc4cccc(F)c4)c3)c2Nc2cccc(F)c2)C1	497
CS(=O)(=O)Nc1cc(-c2[nH]c3c(c2Nc2ccccc2)C(=O)CCC3)ccn1	6660

The next compounds have a lower IC50 than those just listed; values first:

IC50 [nM]	Structure (SMILES)
99.8	CC1(C)CC(=O)c2c([nH]c(-c3ccnc(Br)c3)c2Nc2ccccc2)C1
85.5	Cc1cccc(Nc2c(-c3ccncc3)[nH]c3c2C(=O)CC(C)(C)C3)c1F
58.9	CC(=O)Nc1cc(-c2[nH]c3c(c2Nc2ccc(F)cc2)C(=O)CCC3)ccn1
53.6	CC1(C)CC(=O)c2c([nH]c(-c3ccnc(Cl)c3)c2Nc2ccccc2)C1
